Results published in publication PMC3961306, “Comparison of the Cancer Gene Targeting and Biochemical Selectivities of All Targeted Kinase Inhibitors Approved for Clinical Use” (PLoS ONE, 2014).
Where two headings read alike, the source gives them in different places.

How the values were obtained:
Experiment in all cases: Kinase profiling in a biochemical assay panel (mobility shift assays and ELISA), %-inhibition at 1 μM; selectivity entropy
[1] = target: T1, panel of more than 300 wild-type and mutant kinases (313 kinase panel) (Homo sapiens, UniProt O14757)
T1 sequence (O14757 1-476): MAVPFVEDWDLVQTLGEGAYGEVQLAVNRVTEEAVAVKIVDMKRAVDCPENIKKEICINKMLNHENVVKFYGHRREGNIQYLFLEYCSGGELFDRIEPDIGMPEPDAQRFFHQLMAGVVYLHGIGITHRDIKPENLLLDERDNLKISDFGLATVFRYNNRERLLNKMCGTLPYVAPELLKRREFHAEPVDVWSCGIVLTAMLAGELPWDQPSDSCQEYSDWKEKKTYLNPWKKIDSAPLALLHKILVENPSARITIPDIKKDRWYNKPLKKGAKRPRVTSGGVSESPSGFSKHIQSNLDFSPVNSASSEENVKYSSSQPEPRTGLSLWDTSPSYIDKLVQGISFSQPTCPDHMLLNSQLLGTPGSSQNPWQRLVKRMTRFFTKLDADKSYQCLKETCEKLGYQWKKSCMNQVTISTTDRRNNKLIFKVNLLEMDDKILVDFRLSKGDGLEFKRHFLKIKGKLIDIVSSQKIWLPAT

[2] = target: panel of more than 300 wild-type and mutant kinases (313 kinase panel) (Homo sapiens, UniProt P07949, Y791F)
[3] = target: panel of more than 300 wild-type and mutant kinases (313 kinase panel) (Homo sapiens, UniProt P10721, D816V)
[4] = target: panel of more than 300 wild-type and mutant kinases (313 kinase panel) (Homo sapiens, UniProt P36894)
[5] = target: T2, panel of more than 300 wild-type and mutant kinases (313 kinase panel) (Homo sapiens, UniProt P52333)
T2 sequence (P52333 1-1124): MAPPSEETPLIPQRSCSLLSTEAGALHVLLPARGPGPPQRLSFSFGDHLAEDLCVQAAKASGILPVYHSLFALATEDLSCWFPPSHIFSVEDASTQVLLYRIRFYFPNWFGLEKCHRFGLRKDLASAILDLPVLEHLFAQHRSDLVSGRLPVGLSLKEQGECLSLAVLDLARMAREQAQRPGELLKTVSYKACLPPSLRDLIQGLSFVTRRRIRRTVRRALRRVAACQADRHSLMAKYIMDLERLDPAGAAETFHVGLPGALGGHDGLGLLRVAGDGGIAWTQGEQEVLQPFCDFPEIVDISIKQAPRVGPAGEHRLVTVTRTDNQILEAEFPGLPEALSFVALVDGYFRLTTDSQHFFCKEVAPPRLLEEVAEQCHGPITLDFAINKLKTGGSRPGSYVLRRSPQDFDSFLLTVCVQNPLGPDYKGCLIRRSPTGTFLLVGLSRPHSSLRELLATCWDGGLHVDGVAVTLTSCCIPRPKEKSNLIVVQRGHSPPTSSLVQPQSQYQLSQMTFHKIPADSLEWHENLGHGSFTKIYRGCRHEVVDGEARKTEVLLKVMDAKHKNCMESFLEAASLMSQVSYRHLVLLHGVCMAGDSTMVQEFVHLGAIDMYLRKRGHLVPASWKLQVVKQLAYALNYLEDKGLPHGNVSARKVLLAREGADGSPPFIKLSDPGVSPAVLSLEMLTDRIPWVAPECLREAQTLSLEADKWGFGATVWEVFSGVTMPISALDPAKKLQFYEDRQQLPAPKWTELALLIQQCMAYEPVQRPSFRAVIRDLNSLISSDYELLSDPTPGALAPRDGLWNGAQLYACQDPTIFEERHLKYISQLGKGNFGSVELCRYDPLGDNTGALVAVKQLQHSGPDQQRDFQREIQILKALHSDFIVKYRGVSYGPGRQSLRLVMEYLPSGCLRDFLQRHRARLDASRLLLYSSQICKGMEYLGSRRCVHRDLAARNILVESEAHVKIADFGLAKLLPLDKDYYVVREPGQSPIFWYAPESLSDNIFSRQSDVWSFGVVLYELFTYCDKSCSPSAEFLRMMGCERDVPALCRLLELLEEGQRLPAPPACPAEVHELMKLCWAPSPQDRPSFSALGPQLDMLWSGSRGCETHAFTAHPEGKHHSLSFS

[6] = target: panel of more than 300 wild-type and mutant kinases (313 kinase panel) (Homo sapiens, UniProt P53667)
[7] = target: panel of more than 300 wild-type and mutant kinases (313 kinase panel) (Homo sapiens, UniProt Q02779)
[8] = target: panel of more than 300 wild-type and mutant kinases (313 kinase panel) (Homo sapiens, UniProt Q04759)
[9] = target: panel of more than 300 wild-type and mutant kinases (313 kinase panel) (Homo sapiens, UniProt Q15208)
[10] = target: panel of more than 300 wild-type and mutant kinases (313 kinase panel) (Homo sapiens, UniProt Q16816)
[11] = target: panel of more than 300 wild-type and mutant kinases (313 kinase panel) (Homo sapiens, UniProt Q9NYY3)
[12] = target: panel of more than 300 wild-type and mutant kinases (313 kinase panel) (Homo sapiens, UniProt Q9UKE5)
[13] = kinase KIT(D816V), compound at 1 μM

panel of more than 300 wild-type and mutant kinases (313 kinase panel) (Homo sapiens, UniProt Q15208), sequence (Q15208 whole entry, change not shown): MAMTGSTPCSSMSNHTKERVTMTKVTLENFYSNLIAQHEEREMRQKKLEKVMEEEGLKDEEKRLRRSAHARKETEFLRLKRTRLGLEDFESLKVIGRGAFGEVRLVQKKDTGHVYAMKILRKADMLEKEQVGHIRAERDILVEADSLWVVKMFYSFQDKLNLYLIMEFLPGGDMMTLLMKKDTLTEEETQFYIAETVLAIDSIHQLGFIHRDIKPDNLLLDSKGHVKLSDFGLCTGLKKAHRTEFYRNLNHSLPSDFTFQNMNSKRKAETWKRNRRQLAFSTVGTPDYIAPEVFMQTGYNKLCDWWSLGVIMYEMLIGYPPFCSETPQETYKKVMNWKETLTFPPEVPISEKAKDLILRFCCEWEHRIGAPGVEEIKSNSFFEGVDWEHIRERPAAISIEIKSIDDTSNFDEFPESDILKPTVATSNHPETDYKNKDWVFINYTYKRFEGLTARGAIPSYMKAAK
panel of more than 300 wild-type and mutant kinases (313 kinase panel) (Homo sapiens, UniProt Q04759), sequence (Q04759 whole entry, change not shown): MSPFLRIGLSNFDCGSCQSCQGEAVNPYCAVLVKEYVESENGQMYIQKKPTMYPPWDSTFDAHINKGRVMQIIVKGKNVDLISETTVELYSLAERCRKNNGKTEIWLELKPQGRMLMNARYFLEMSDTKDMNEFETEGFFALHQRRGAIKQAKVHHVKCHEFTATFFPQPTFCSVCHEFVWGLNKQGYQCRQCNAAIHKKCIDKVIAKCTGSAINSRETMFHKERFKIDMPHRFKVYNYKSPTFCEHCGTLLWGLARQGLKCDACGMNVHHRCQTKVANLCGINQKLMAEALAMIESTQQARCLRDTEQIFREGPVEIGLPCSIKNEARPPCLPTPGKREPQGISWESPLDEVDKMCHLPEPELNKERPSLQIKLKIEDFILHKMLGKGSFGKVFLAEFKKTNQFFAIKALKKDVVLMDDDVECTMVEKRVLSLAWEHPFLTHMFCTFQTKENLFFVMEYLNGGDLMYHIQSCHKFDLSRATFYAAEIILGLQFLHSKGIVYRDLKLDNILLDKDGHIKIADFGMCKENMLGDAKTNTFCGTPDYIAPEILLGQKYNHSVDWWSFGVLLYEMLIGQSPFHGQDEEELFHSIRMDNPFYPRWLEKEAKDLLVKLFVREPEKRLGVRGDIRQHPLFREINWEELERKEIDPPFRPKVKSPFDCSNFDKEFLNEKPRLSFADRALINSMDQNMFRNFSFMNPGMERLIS
panel of more than 300 wild-type and mutant kinases (313 kinase panel) (Homo sapiens, UniProt P07949, Y791F), sequence (P07949 29-1114 Y791F): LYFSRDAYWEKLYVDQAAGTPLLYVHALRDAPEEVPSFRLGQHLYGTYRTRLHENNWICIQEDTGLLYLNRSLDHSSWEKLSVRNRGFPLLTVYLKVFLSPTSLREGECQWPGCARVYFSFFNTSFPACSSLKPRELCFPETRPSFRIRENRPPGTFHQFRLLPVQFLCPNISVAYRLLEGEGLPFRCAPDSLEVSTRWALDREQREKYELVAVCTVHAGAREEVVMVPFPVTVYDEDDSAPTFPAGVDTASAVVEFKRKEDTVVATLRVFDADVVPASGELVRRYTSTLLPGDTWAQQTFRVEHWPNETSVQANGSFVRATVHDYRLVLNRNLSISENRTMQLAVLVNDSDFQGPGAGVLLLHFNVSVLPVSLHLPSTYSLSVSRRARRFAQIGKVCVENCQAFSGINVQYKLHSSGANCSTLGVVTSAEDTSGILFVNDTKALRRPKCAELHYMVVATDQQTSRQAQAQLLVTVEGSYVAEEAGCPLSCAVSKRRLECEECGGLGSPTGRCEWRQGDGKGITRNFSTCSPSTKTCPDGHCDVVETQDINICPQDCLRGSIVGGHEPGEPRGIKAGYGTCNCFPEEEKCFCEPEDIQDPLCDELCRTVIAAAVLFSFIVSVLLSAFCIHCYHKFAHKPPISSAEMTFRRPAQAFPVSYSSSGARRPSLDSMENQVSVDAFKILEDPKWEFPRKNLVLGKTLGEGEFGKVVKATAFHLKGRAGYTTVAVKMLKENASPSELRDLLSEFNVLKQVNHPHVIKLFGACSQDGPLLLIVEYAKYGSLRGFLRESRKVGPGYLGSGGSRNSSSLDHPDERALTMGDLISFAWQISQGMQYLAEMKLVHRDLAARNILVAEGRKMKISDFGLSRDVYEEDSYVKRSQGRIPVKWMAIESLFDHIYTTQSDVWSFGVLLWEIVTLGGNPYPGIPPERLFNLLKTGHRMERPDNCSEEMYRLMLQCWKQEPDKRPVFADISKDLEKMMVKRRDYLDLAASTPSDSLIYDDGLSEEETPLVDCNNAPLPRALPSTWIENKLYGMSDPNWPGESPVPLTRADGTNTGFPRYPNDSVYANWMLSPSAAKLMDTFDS
panel of more than 300 wild-type and mutant kinases (313 kinase panel) (Homo sapiens, UniProt Q02779), sequence (Q02779 whole entry, change not shown): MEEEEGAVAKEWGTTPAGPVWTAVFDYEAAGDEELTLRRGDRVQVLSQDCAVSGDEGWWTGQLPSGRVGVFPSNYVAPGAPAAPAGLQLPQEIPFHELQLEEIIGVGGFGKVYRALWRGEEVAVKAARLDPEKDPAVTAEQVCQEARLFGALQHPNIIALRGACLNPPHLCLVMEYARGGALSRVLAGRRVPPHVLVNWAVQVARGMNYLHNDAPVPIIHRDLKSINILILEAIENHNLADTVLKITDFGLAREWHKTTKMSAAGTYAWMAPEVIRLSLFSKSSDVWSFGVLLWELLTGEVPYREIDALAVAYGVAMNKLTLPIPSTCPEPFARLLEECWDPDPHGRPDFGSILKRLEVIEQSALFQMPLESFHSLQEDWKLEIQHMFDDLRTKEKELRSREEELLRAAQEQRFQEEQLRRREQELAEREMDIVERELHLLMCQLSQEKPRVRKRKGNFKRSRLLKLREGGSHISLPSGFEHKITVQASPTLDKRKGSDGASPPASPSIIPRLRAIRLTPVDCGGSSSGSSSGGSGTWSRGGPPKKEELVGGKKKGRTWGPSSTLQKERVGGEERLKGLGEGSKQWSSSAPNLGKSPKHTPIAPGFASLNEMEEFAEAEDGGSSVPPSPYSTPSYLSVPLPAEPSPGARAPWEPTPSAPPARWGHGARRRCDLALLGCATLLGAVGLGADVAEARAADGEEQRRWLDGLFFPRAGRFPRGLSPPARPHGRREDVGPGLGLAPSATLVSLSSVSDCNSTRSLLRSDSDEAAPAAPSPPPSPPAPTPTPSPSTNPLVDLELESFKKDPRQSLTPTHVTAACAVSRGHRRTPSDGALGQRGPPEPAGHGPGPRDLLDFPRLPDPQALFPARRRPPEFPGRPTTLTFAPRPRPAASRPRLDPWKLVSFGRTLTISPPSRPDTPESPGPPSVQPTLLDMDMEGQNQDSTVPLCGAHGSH
panel of more than 300 wild-type and mutant kinases (313 kinase panel) (Homo sapiens, UniProt Q16816), sequence (Q16816 whole entry, change not shown): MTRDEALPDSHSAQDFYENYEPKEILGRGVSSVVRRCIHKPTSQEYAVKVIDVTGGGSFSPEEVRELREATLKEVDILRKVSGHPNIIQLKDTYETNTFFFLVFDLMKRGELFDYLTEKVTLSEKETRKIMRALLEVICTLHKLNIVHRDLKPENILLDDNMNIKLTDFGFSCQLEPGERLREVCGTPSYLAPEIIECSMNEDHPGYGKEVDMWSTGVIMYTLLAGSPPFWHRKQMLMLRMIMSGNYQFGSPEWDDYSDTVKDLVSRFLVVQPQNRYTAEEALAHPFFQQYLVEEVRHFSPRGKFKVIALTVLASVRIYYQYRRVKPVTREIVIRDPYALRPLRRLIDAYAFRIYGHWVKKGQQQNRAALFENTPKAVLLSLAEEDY
panel of more than 300 wild-type and mutant kinases (313 kinase panel) (Homo sapiens, UniProt Q9UKE5), sequence (Q9UKE5 whole entry, stated change not applied): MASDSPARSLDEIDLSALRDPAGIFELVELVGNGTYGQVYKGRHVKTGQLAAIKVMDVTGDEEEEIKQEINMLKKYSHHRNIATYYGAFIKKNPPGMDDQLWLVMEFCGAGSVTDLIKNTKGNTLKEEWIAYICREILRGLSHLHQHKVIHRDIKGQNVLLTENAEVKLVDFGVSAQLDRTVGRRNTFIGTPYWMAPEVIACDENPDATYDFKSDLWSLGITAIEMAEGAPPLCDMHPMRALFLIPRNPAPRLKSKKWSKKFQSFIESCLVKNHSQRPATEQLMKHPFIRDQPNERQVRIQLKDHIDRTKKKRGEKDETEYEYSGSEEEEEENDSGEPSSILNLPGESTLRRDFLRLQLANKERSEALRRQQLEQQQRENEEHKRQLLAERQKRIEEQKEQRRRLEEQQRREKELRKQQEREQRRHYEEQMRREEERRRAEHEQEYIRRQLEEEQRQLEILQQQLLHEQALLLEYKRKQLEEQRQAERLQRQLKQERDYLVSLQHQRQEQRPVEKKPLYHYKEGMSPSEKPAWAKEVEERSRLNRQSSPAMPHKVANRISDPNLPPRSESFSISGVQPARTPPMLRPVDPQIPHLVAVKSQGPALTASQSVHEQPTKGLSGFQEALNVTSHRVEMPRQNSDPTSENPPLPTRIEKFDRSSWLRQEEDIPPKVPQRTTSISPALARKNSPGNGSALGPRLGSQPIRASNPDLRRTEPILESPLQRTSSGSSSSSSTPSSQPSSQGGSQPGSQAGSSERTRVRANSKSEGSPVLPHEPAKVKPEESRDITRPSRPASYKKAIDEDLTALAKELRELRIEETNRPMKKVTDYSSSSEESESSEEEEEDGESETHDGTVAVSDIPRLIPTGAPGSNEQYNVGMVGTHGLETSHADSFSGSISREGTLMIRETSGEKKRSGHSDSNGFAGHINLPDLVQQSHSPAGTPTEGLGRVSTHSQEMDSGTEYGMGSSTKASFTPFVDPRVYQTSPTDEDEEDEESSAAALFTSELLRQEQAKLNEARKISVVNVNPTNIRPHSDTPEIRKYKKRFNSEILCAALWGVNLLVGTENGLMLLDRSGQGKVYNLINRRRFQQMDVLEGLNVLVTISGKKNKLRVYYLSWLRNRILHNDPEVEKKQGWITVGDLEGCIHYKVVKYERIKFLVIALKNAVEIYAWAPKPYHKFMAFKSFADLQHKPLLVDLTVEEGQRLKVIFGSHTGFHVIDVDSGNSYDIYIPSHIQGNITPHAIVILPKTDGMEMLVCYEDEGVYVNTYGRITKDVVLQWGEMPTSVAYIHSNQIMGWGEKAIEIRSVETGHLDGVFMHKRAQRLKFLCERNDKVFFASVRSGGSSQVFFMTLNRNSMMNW

Row | SMILES | %-inhibition, CHK1 ([1]; kinase CHK1, 1 μM compound) [%] | %-inhibition of RET(Y791F) ([2]; kinase RET(Y791F), 1 μM) [%] | %-inhibition of KIT(D816V) [3, 13] [%] | %-inhibition, BMPR1A ([4]; kinase BMPR1A, 1 μM compound) [%] | %-inhibition of JAK3 ([5]; kinase JAK3, compound at 1 μM) [%] | %-inhibition of LIMK1 ([6]; kinase LIMK1, compound at 1 μM) [%] | %-inhibition of MLK2 ([7]; kinase MLK2, 1 μM) [%] | %-inhibition of PKCθ ([8]; kinase PKCθ, 1 μM) [%] | %-inhibition of NDR1 ([9]; kinase NDR1, 1 μM) [%] | %-inhibition of PHKG1 ([10]; kinase PHKG1, 1 μM) [%] | %-inhibition of PLK2 ([11]; kinase PLK2, 1 μM) [%] | %-inhibition of TNIK ([12]; kinase TNIK, 1 μM) [%] | %-inhibition of RET(Y791F) ([2]; 1 µM) [%] | %-inhibition of KIT(D816V) ([3]; 1 µM) [%] | further results
1 | CO[C@H]1C[C@@H]2CC[C@@H](C)[C@@](O)(O2)C(=O)C(=O)N2CCCC[C@H]2C(=O)O[C@H]([C@H](C)C[C@@H]2CC[C@@H](OCCO)[C@H](OC)C2)CC(=O)[C@H](C)/C=C(\C)[C@@H](O)[C@@H](OC)C(=O)[C@H](C)C[C@H](C)/C=C/C=C/C=C/1C [everolimus] | 4 | -3.57 | -4.44 | -3.21 | -4.43 | 3.28 | 4 | -8 | -7 | 0.522 | 1.38 | -3 |  |  | 
2 | CCCS(=O)(=O)Nc1ccc(F)c(C(=O)c2c[nH]c3ncc(-c4ccc(Cl)cc4)cc23)c1F [vemurafenib] | 4 | 30 | 17 | 9 | 10 | 45 | 5 | -3 | -3.81 | -0.913 | -1.85 | 33 |  |  | 
3 | O=S(=O)(c1cccc2cnccc12)N1CCCNCC1 [fasudil] | -11 | 1 | 4.75 | -10 | 4.46 | -7 | -10 | 13 | 18 | 2.6 | 7 | 4 |  |  | 
4 | CS(=O)(=O)CCNCc1ccc(-c2ccc3ncnc(Nc4ccc(OCc5cccc(F)c5)c(Cl)c4)c3c2)o1 [lapatinib] | 12 |  |  |  | -6 | -2.33 | 1.78 |  | -0.543 | 4.72 | -4 | 25 | -5 | -3 | %-inhibition, BMPR1A [4]: 7.37%; %-inhibition of PKCθ ([8]; 1 µM): 0%
5 | C#Cc1cccc(Nc2ncnc3cc(OCCOC)c(OCCOC)cc23)c1 [erlotinib] |  |  |  |  |  |  |  |  |  |  |  |  | 70 | 32 | %-inhibition, CHK1 ([1]; 1 µM): 14%; %-inhibition, BMPR1A [4]: 12%; %-inhibition of JAK3 ([5]; 1 µM): 55%; %-inhibition of LIMK1 ([6]; 1 µM): 0.0961%; %-inhibition of MLK2 ([7]; 1 µM): -1.75%; %-inhibition of PKCθ ([8]; 1 µM): 4.46%; %-inhibition of NDR1 ([9]; 1 µM): 3.48%; %-inhibition of PHKG1 ([10]; 1 µM): 5%; %-inhibition of PLK2 ([11]; 1 µM): -3.59%; %-inhibition of TNIK ([12]; 1 µM): 34%
6 | Cc1cn(-c2cc(NC(=O)c3ccc(C)c(Nc4nccc(-c5cccnc5)n4)c3)cc(C(F)(F)F)c2)cn1 [nilotinib] | -15 |  |  | -22 | 2.15 | -18 | -1.7 | -3.49 | -3 | -8 |  | 11 | 16 | 43 | %-inhibition of PLK2 ([11]; 1 µM): 6%
7 | COc1cc(Nc2c(C#N)cnc3cc(OCCCN4CCN(C)CC4)c(OC)cc23)c(Cl)cc1Cl [bosutinib] | 83 | 93 | 78 | 1.74 | 67 | -7 | 58 | 84 |  | 49 | 21 | 102 |  |  | %-inhibition of NDR1 ([9]; 1 µM): -3.49%
8 | CC(=O)Nc1cccc(-n2c(=O)n(C3CC3)c(=O)c3c(Nc4ccc(I)cc4F)n(C)c(=O)c(C)c32)c1 [trametinib] | -0.719 | -1.71 | -4 | 2.14 | 6 | -1.84 | 5 | 0.388 | -1.68 | -2.24 | -1.65 | 3 |  |  | 
